The source of these data is patent publication US8389573B2, “Glycyrrhetinic acid derivatives” (Wellington Laboratories Inc., priority 2006, dated 2013).

In one data set the test system is HT-29 cells. Description: Western blot analysis in HT-29 cells. The data set is classed as cell-based, human. The procedure: SW-480 and HT-29 (3×10^5) cells were seeded in six-well plates in DMEM/Ham's F-12 media containing 2.5% charcoal-stripped FBS for 24 h and then treated with either the vehicle (DMSO) or the indicated compounds. Whole-cell lysates were obtained using high-salt buffer [50 mM HEPES, 500 mM NaCl, 1.5 mM MgCl2, 1 mM EGTA, 10% glycerol, and 1% Triton X-100, pH 7.5, and 5 μl/ml Protease Inhibitor Cocktail (Sigma-Aldrich)]. Protein samples were incubated at 100° C. for 2 min, separated on 10% SDS-PAGE at 120 V for 3 to 4 h in 1× running buffer (25 mM Tris-base, 192 mM glycine, and 0.1% SDS, pH 8.3), and transferred to polyvinylidene difluoride membrane (PVDF; Bio-Rad, Hercules, Calif.) at […] for 16 h at 4° C. in 1× transfer buffer (48 mM Tris-HCl, 39 mM glycine, and 0.025% SDS). The PVDF membrane was blocked in 5% TBST-Blotto (10 mM Tris-HCl, 150 mM NaCl, pH 8.0, 0.05% Triton X-100, and 5% nonfat dry milk) with gentle shaking for 30 min and was incubated in fresh 5% TBST-Blotto with 1:1000 (for caveolin-1, p27, p21, cyclin D1, Grp78), 1:500 (for KLF4, NAG-1), 1:250 (for PARP), and 1:5000 (for β-actin) primary antibody overnight with gentle shaking at 4° C. After washing with TBST for 10 min, the PVDF membrane was incubated with secondary antibody (1:5000) in 5% TBST-Blotto for 90 min. The membrane was washed with TBST for 10 min, incubated with 10 ml of chemiluminescence substrate (PerkinElmer) for 1.0 min, and exposed to Kodak X-OMAT AR autoradiography film (Eastman Kodak, Rochester, N.Y.).
A general note: A western blot detects proteins with antibodies after separation by electrophoresis.

The test system of a further data set is AR promoter. Description: AR-luc promoter luciferase assay in LNCaP cells. The class given is cell-based. From the text: Transfections: The Gal4 reporter construct containing 5× Gal4 response elements (pGal4) was kindly provided by Dr. Marty Mayo (University of North Carolina, Chapel Hill, N.C.). The Gal4 DBD-PPARγ construct was a gift of Dr. Jennifer L. Oberfield (Glaxo Wellcome Research and Development, Research Triangle Park, N.C.). The PPRE-luc construct contains three tandem PPREs with a minimal TATA sequence linked to the luciferase gene in pGL2. The AR-luc construct containing the −5400 to +580 region of the androgen receptor promoter was provided by Dr. Donald J. Tindall (Mayo Clinic, Rochester, Minn.), and the PSA-luc construct containing the 5.8-kilobase region of the PSA promoter was provided by Dr. Hong-Wu Cheng (University of California, Davis, Calif.). LNCaP cells (1×10^5) were seeded in 12-well plates in DMEM/Ham's F-12 media supplemented with 2.5% charcoal-stripped FBS and grown overnight. Transient transfections were performed using Lipofectamine reagent (Invitrogen) according to the protocol provided by the manufacturer. Transfection studies were performed using 0.4 μg of Gal4Luc, 0.04 μg of β-galactosidase, 0.04 μg of Gal4 DBD-PPARγ, 0.4 μg of AR-luc, and 0.3 μg of PSA-luc. […] A Lumicount luminometer (PerkinElmer Life and Analytical Sciences) was used to quantify luciferase and β-galactosidase activities, and the luciferase activities were normalized to β-galactosidase activity.

Data set [1] has as its system Sp1, Sp3 and Sp4 in liver. Description: Sp protein expression in non-target tissue (liver) of treated mice. The class given is in vivo. The following applies: preliminary results. From the text:
(i) Animal treatment: Male athymic nude mice are obtained from commercial sources and their use approved by the Institutional Animal Care and Use Committee. Ten animals are used for each treatment group and based on consultation with biostatisticians, this number is sufficient for determining statistical significance between treatment groups (41, 42). At least one AR-positive (LNCaP/22Rv1) and AR-negative (PC3/DU145) prostate cancer cell line is used in the xenograft study. Cells are harvested by exposure to trypsin and resuspended in serum-free Hanks' balanced salt solution (HBSS). […] In addition, Western blot analysis of Sp proteins, proapoptotic and antiangiogenic responses is determined on whole cell lysates from compound- and corn oil (vehicle)-treated tumors. Where possible (depending on the amount of protein extracted), the effects of the compound versus corn oil on expression of these proteins is quantitated and statistically analyzed. In addition, the effects of the compound on Sp protein expression in non-target tissue (e.g. liver and kidney) is determined. […] Immunostaining for Sp1, Sp3 and Sp4 and for angiogenic (VEGF, VEGFR1 and VEGFR2) and apoptotic (cleaved PARP, activated caspase 3, survivin and TUNEL) proteins/responses are determined as described above.

Turning to `COC(=O)[C@@]1(C)CC[C@]2(C)CC[C@]3(C)C(=CC(=O)[C@@H]4[C@@]5(C)C=C(C#N)C(=O)C(C)(C)[C@@H]5CC[C@]43C)[C@@H]2C1` [β-CDODA-Me, Methyl 2-cyano-3,11-dioxo-18β-oleana-1,12-dien-30-oate], in the data set with HT-29 cells (HT-29, 24 hours), the “NAG-1 and KLF4 proteins” value is “induction of NAG-1 and KLF4 proteins”; the PARP cleavage entry is reported as “induction of PARP cleavage”. Further, the NAG-1 protein levels entry in the data set with HT-29 cells (HT-29, 24 hours, higher (5 μM) concentration) is “decreased”. Also, the “induction of NAG-1 and PARP cleavage after cotreatment with T007” value in the data set with HT-29 cells (HT-29, 24 hr) is recorded as “not affected”. Moreover, the “KLF-4 induction after cotreatment with T007” value in the data set on HT-29 cells (HT-29, 24 hr, 10 μM T007) is reported as “blocks this induction response”. In addition, the caveolin-1 entry with HT-29 cells (HT-29, 3 days) was “induction of caveolin-1”. Further, the “induction of caveolin-1 after cotreatment with T007” value with HT-29 cells (HT-29, 96 hr, 10 μM T007) is “inhibited”. Besides, the “luciferase activity of AR-Luc construct” value in the data set with AR promoter is on record as “decreased luciferase activity”. In data set [1], the “Sp1, Sp3 and Sp4 expression in liver” value was “unaffected”.
